Conditions: 303.15 K, Liquid, Vibrating tube method

CCCCCC(=O)OCC(COC(=O)CCCCC)(COC(=O)CCCCC)COC(=O)CCCCC [pentaerythritol tetrahexanoate]
Conditions	mass density [kg/m3]
5137.3 kPa	991.5
5153 kPa	991.6
5168.7 kPa	991.7
5185 kPa	991.7
5201.1 kPa	991.6
5220.3 kPa	991.6
5236.1 kPa	991.6
5252.7 kPa	991.7
5271.9 kPa	991.8
5288.3 kPa	991.7
5304.7 kPa	991.7
5321.5 kPa	991.6
5341.1 kPa	991.8
5357.3 kPa	991.8
5683.2 kPa	992
5701.2 kPa	992
5722.4 kPa	992
5740.3 kPa	992
5758.4 kPa	992.1
5780 kPa	992.1
5798.2 kPa	992
5816.3 kPa	992.1
5835 kPa	992.1
5853.7 kPa	992.1
5912.7 kPa	992.1
6092.3 kPa	992.3
6130.7 kPa	992.2
6149.9 kPa	992.4
6172.7 kPa	992.3
6191.3 kPa	992.3
6210.7 kPa	992.3
6233.5 kPa	992.3
6252.4 kPa	992.3
6271.5 kPa	992.4
6294.4 kPa	992.3
6313.7 kPa	992.3
6333.6 kPa	992.5
6354.3 kPa	992.4
6373.3 kPa	992.4
6396.3 kPa	992.4
6415.5 kPa	992.5
6434.7 kPa	992.6
6457.8 kPa	992.5
6476.9 kPa	992.5
6496.6 kPa	992.5
6516.3 kPa	992.5
6539.1 kPa	992.5
6558.1 kPa	992.5
6581.1 kPa	992.6
6600.9 kPa	992.6
6621.4 kPa	992.5
6640.4 kPa	992.6
6659.3 kPa	992.6
6681.6 kPa	992.6
6699.9 kPa	992.6
6718.5 kPa	992.7
6740.3 kPa	992.7
6758.3 kPa	992.6
6776.2 kPa	992.7
6797.8 kPa	992.7
6815.4 kPa	992.7
6833.2 kPa	992.7
6854.1 kPa	992.7
6871.8 kPa	992.8
6889.4 kPa	992.6
6907.3 kPa	992.8
6924.8 kPa	992.7
6946.2 kPa	992.8
6963.8 kPa	992.8
6981.6 kPa	992.8
6999.8 kPa	992.8
7021.5 kPa	992.9
7039.5 kPa	992.8
7057.3 kPa	992.9
7079.2 kPa	992.9
7097.5 kPa	992.8
7116 kPa	992.9
7134.1 kPa	992.9
7155.9 kPa	992.9
7174.4 kPa	992.9
7192.5 kPa	993
7214.4 kPa	993
7232.7 kPa	993
7251.4 kPa	992.9
7273.7 kPa	993
7292.3 kPa	993
7310.6 kPa	993
7333.2 kPa	993
7352.4 kPa	993
7371.4 kPa	993.1
7394.2 kPa	993.1
7413.2 kPa	993
7432.5 kPa	993.1
7451.7 kPa	993.1
7474.8 kPa	993.1
7494.2 kPa	993.1
7513.5 kPa	993.1
7533.2 kPa	993.2
7556.5 kPa	993.2
7576.2 kPa	993.2
7596.7 kPa	993.2
7616.7 kPa	993.2
7640.5 kPa	993.3
7660.7 kPa	993.2
7680.6 kPa	993.3
7700.8 kPa	993.4
7724.8 kPa	993.2
7744.8 kPa	993.2
7765.4 kPa	993.3
7785.7 kPa	993.3
7809.9 kPa	993.4
7830.6 kPa	993.4
7851.3 kPa	993.3
7876.2 kPa	993.3
7897.2 kPa	993.3
7917.7 kPa	993.4
7938.5 kPa	993.5
7963.1 kPa	993.4
7984.2 kPa	993.4
8005.2 kPa	993.6
8026.6 kPa	993.4
8051.8 kPa	993.5
8072.9 kPa	993.6
8094.6 kPa	993.3
8120 kPa	993.5
8141.2 kPa	993.6
8163.1 kPa	993.5
8186 kPa	993.6
8208.3 kPa	993.6
8233.8 kPa	993.6
8255.4 kPa	993.6
8277.5 kPa	993.6
8303.5 kPa	993.7
8325.2 kPa	993.6
8347.2 kPa	993.7
8373.2 kPa	993.7
8395.6 kPa	993.7
8417.7 kPa	993.7
8440.3 kPa	993.7
8467.9 kPa	993.8
8491.4 kPa	993.8
8513.6 kPa	993.8
8536.1 kPa	993.9
8563.5 kPa	993.6
